Results as given in ChEMBL document CHEMBL1201862, “PubChem BioAssay data set” (2004).
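Following 48 hours of exposure in 96-well plates, responses at five concentrations were used to interpolate endpoints linearly. At the GI50, growth is halved.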 Activity calls are given as the source filed them. No stated cut-off is given here; in the data, active = GI50 up to about 1.1 µM and inactive = higher.

How the values were obtained:
Test in all cases: NCI tumour cell line growth inhibition, 48 h
786-0 = test system: 786-0
A498 = test system: A498
A549 = test system: A549
ACHN = test system: ACHN
CAKI-1 = test system: CAKI-1
CCRF-CEM = test system: CCRF-CEM
COLO 205 = test system: COLO 205
DLD-1 = test system: DLD-1
DMS-114 = test system: DMS-114
EKVX = test system: EKVX
HCC 2998 = test system: HCC 2998
HCT-116 = test system: HCT-116
HCT-15 = test system: HCT-15
HL-60 = test system: HL-60
HOP-62 = test system: HOP-62
HOP-92 = test system: HOP-92
HT-29 = test system: HT-29
IGROV-1 = test system: IGROV-1
K562 = test system: K562
KM-20L2 = test system: KM-20L2
KM12 = test system: KM12
LOX IMVI = test system: LOX IMVI
LXFL 529 = test system: LXFL 529
M14 = test system: M14
M19-MEL = test system: M19-MEL
MOLT-4 = test system: MOLT-4
Malme-3M = test system: Malme-3M
NCI-H226 = test system: NCI-H226
NCI-H23 = test system: NCI-H23
NCI-H460 = test system: NCI-H460
NCI-H522 = test system: NCI-H522
OVCAR-3 = test system: OVCAR-3
OVCAR-4 = test system: OVCAR-4
OVCAR-5 = test system: OVCAR-5
RPMI-8226 = test system: RPMI-8226
RXF 393 = test system: RXF 393
RXF 631 = test system: RXF 631
SF-268 = test system: SF-268
SF-295 = test system: SF-295
SF-539 = test system: SF-539
SK-MEL-28 = test system: SK-MEL-28
SK-MEL-5 = test system: SK-MEL-5
SK-OV-3 = test system: SK-OV-3
SN12C = test system: SN12C
SNB-19 = test system: SNB-19
SNB-75 = test system: SNB-75
SNB-78 = test system: SNB-78
SR = test system: SR
SW-620 = test system: SW-620
TK-10 = test system: TK-10
U-251 = test system: U-251
UACC-257 = test system: UACC-257
UACC-62 = test system: UACC-62
UO-31 = test system: UO-31
XF498 = test system: XF498
DMS-273 = test system: DMS-273
OVCAR-8 = test system: OVCAR-8
SK-MEL-2 = test system: SK-MEL-2

O=C1NC(=O)C2C1N(Cc1ccccc1)C(=O)N2Cc1ccccc1 (configuration not stated)
GI50 (786-0): > 100 µM (inactive)
GI50 (A498): > 100 µM (inactive)
GI50 (A549): > 100 µM (inactive)
GI50 (ACHN): > 100 µM (inactive)
GI50 (CAKI-1): > 100 µM (inactive)
GI50 (CCRF-CEM): > 100 µM (inactive)
GI50 (COLO 205): > 100 µM (inactive)
GI50 (DLD-1): > 100 µM (inactive)
GI50 (DMS-114): > 100 µM (inactive)
GI50 (EKVX): > 100 µM (inactive)
GI50 (HCC 2998): > 100 µM (inactive)
GI50 (HCT-116): > 100 µM (inactive)
GI50 (HCT-15): > 100 µM
GI50 (HL-60): > 100 µM (inactive)
GI50 (HOP-62): > 100 µM (inactive)
GI50 (HOP-92): > 100 µM (inactive)
GI50 (HT-29): > 100 µM (inactive)
GI50 (IGROV-1): > 100 µM (inactive)
GI50 (K562): > 100 µM (inactive)
GI50 (KM-20L2): > 100 µM (inactive)
GI50 (KM12): > 100 µM (inactive)
GI50 (LOX IMVI): > 100 µM (inactive)
GI50 (LXFL 529): > 100 µM (inactive)
GI50 (M14): > 100 µM (inactive)
GI50 (M19-MEL): > 100 µM (inactive)
GI50 (MOLT-4): > 100 µM (inactive)
GI50 (Malme-3M): > 100 µM (inactive)
GI50 (NCI-H226): > 100 µM (inactive)
GI50 (NCI-H23): > 100 µM (inactive)
GI50 (NCI-H460): > 100 µM (inactive)
GI50 (NCI-H522): > 100 µM (inactive)
GI50 (OVCAR-3): > 100 µM (inactive)
GI50 (OVCAR-4): > 100 µM (inactive)
GI50 (OVCAR-5): > 100 µM (inactive)
GI50 (RPMI-8226): > 100 µM (inactive)
GI50 (RXF 393): > 100 µM (inactive)
GI50 (RXF 631): > 100 µM (inactive)
GI50 (SF-268): > 100 µM (inactive)
GI50 (SF-295): > 100 µM (inactive)
GI50 (SF-539): > 100 µM (inactive)
GI50 (SK-MEL-28): > 100 µM (inactive)
GI50 (SK-MEL-5): > 100 µM (inactive)
GI50 (SK-OV-3): > 100 µM (inactive)
GI50 (SN12C): > 100 µM (inactive)
GI50 (SNB-19): > 100 µM (inactive)
GI50 (SNB-75): > 100 µM (inactive)
GI50 (SNB-78): > 100 µM (inactive)
GI50 (SR): > 100 µM (inactive)
GI50 (SW-620): > 100 µM (inactive)
GI50 (TK-10): > 100 µM (inactive)
GI50 (U-251): > 100 µM (inactive)
GI50 (UACC-257): > 100 µM (inactive)
GI50 (UACC-62): > 100 µM (inactive)
GI50 (UO-31): > 100 µM (inactive)
GI50 (XF498): > 100 µM (inactive)

COc1ccc2c(CCNC(C)=O)c(C(C)=O)[nH]c2c1
GI50 (786-0): > 100 µM (inactive)
GI50 (A498): > 100 µM (inactive)
GI50 (A549): > 100 µM (inactive)
GI50 (ACHN): > 100 µM (inactive)
GI50 (CAKI-1): 70.5 µM (inactive)
GI50 (CCRF-CEM): > 100 µM (inactive)
GI50 (COLO 205): > 100 µM (inactive)
GI50 (DLD-1): > 100 µM (inactive)
GI50 (DMS-114): > 100 µM (inactive)
GI50 (DMS-273): > 100 µM (inactive)
GI50 (EKVX): > 100 µM (inactive)
GI50 (HCC 2998): > 100 µM (inactive)
GI50 (HCT-116): > 100 µM (inactive)
GI50 (HCT-15): > 100 µM
GI50 (HL-60): > 100 µM (inactive)
GI50 (HOP-62): > 100 µM (inactive)
GI50 (HT-29): > 100 µM (inactive)
GI50 (IGROV-1): > 100 µM (inactive)
GI50 (K562): > 100 µM (inactive)
GI50 (KM-20L2): > 100 µM (inactive)
GI50 (KM12): > 100 µM (inactive)
GI50 (LOX IMVI): > 100 µM (inactive)
GI50 (LXFL 529): > 100 µM (inactive)
GI50 (M14): > 100 µM (inactive)
GI50 (MOLT-4): > 100 µM (inactive)
GI50 (NCI-H226): 71.4 µM (inactive)
GI50 (NCI-H23): > 10 µM (inactive)
GI50 (NCI-H460): > 100 µM (inactive)
GI50 (NCI-H522): > 100 µM (inactive)
GI50 (OVCAR-3): > 100 µM (inactive)
GI50 (OVCAR-4): > 100 µM (inactive)
GI50 (OVCAR-5): > 100 µM (inactive)
GI50 (OVCAR-8): > 100 µM (inactive)
GI50 (RPMI-8226): > 100 µM (inactive)
GI50 (RXF 393): > 100 µM (inactive)
GI50 (RXF 631): > 100 µM (inactive)
GI50 (SF-268): 48.4 µM (inactive)
GI50 (SF-295): > 100 µM (inactive)
GI50 (SF-539): > 100 µM (inactive)
GI50 (SK-MEL-28): > 100 µM (inactive)
GI50 (SK-MEL-2): > 100 µM (inactive)
GI50 (SN12C): > 100 µM (inactive)
GI50 (SNB-19): > 100 µM (inactive)
GI50 (SNB-75): > 100 µM (inactive)
GI50 (SNB-78): > 100 µM (inactive)
GI50 (SR): > 100 µM (inactive)
GI50 (SW-620): > 100 µM (inactive)
GI50 (TK-10): > 100 µM (inactive)
GI50 (U-251): > 100 µM (inactive)
GI50 (UACC-257): > 100 µM (inactive)
GI50 (UACC-62): > 100 µM (inactive)
GI50 (UO-31): > 100 µM (inactive)
